A value given as a limit tells only on which side of the number the result lay.

For one experiment, the target named is T1, TR beta-LBD (Homo sapiens, UniProt P10828).
T1 sequence (P10828 217-461 limits assumed): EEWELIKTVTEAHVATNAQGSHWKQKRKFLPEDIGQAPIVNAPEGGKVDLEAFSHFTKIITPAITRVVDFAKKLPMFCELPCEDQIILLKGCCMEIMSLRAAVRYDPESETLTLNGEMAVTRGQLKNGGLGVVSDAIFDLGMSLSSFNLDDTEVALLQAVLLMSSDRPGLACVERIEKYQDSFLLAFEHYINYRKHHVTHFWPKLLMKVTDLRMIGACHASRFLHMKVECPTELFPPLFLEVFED
It counts as biochemical. As to conditions: TR-FRET assay; THR beta over THR alpha, derived from T3-selectivity normalized data.

For another experiment, the target named is T2, THR-β/RXR-α (Homo sapiens, UniProt P10828).
T2 sequence (P10828 202-461 limits assumed): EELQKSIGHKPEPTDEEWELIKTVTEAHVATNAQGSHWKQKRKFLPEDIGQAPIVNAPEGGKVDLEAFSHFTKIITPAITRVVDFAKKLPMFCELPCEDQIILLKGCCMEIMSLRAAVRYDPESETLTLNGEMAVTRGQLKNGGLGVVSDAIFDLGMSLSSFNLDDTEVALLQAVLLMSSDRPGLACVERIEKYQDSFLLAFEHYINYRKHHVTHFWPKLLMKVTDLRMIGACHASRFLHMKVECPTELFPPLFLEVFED
T2 sequence (P19793 225-462 partner limits assumed): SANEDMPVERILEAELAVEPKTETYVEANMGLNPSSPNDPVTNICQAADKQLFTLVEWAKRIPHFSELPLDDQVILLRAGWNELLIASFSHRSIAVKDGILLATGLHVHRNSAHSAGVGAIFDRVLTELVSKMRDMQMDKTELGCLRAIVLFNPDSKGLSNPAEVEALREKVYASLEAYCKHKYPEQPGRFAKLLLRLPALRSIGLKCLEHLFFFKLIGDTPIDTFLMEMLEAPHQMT
T2 sequence (Q15596 679-703 partner limits assumed): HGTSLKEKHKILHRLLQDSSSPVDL
It counts as biochemical. As to conditions: RXR heterodimer assay; compound activity normalized to T3 for THR-β/RXR-α and THR-α/RXR-α.

Turning to `Cc1n[nH]c2ncc(Oc3c(Cl)cc(-n4nc(C#N)c(=O)[nH]c4=O)cc3Cl)cc12` [Example 7, 2-(3,5-dichloro-4-((3-methyl-1H-pyrazolo[3,4-b]pyridin-5-yl)oxy)phenyl)-3,5-dioxo-2,3,4,5-tetrahydro-1,2,4-triazine-6-carbonitrile], the results for the THRβ-Selectivity on TR beta-LBD and at THR-β/RXR-α were 9.5 and 9.7, respectively.

For `COc1n[nH]c2ccc(Oc3c(Cl)cc(-n4nc(C#N)c(=O)[nH]c4=O)cc3Cl)cc12` [Example 9, 2-(3,5-dichloro-4-((3-methoxy-1H-indazol-5-yl)oxy)phenyl)-3,5-dioxo-2,3,4,5-tetrahydro-1,2,4-triazine-6-carbonitrile], the THRβ-Selectivity at TR beta-LBD came to 8.0; at THR-β/RXR-α, 10.3.

For the compound `Cn1cnc2cnc(Oc3c(Cl)cc(NC(=O)c4noc(=O)[nH]4)cc3Cl)cc21` [Example 11, N-(3,5-dichloro-4-((1-methyl-1H-imidazo[4,5-c]pyridin-6-yl)oxy)phenyl)-5-oxo-4,5-dihydro-1,2,4-oxadiazole-3-carboxamide], the THRβ-Selectivity is given as greater than 30.5 on TR beta-LBD and 10.4 at THR-β/RXR-α.

In the case of `N#Cc1nn(-c2cc(Cl)c(Oc3ccc4ncccc4c3)c(Cl)c2)c(=O)[nH]c1=O` [Example 13, 2-(3,5-dichloro-4-(quinolin-6-yloxy)phenyl)-3,5-dioxo-2,3,4,5-tetrahydro-1,2,4-triazine-6-carbonitrile], the THRβ-Selectivity on TR beta-LBD is reported as 3.7; at THR-β/RXR-α, 5.5.

Take `Cc1ccnc2ccc(Oc3c(Cl)cc(-n4nc(C#N)c(=O)[nH]c4=O)cc3Cl)cc12` [Example 15, 2-(3,5-dichloro-4-((4-methylquinolin-6-yl)oxy)phenyl)-3,5-dioxo-2,3,4,5-tetrahydro-1,2,4-triazine-6-carbonitrile]: the THRβ-Selectivity was found to be 15.9 at TR beta-LBD and 15.4 at THR-β/RXR-α.

In the case of `Cc1cnc2ccc(Oc3c(Cl)cc(-n4nc(C#N)c(=O)[nH]c4=O)cc3Cl)cc2c1` [Example 16, 2-(3,5-dichloro-4-((3-methylquinolin-6-yl)oxy)phenyl)-3,5-dioxo-2,3,4,5-tetrahydro-1,2,4-triazine-6-carbonitrile], the values for the THRβ-Selectivity on TR beta-LBD and on THR-β/RXR-α were 68.1 and 7.1, respectively.

Consider `Cn1cc2cc(Oc3c(Cl)cc(-n4nc(C#N)c(=O)[nH]c4=O)cc3Cl)ccc2n1` [Example 17, 2-(3,5-dichloro-4-((2-methyl-2H-indazol-5-yl)oxy)phenyl)-3,5-dioxo-2,3,4,5-tetrahydro-1,2,4-triazine-6-carbonitrile], for which the results for the THRβ-Selectivity at TR beta-LBD and on THR-β/RXR-α were 2.2 and 6.3, respectively.

With `Cn1cnc2ccc(Oc3c(Cl)cc(-n4nc(C#N)c(=O)[nH]c4=O)cc3Cl)cc21` [Example 19, 2-(3,5-dichloro-4-((1-methyl-1H-benzo[d]imidazol-6-yl)oxy)phenyl)-3,5-dioxo-2,3,4,5-tetrahydro-1,2,4-triazine-6-carbonitrile], the results for the THRβ-Selectivity at TR beta-LBD and on THR-β/RXR-α were 38.0 and 5.6, respectively.

Turning to `CC(C)n1cnc2ccc(Oc3c(Cl)cc(NC(=O)c4noc(=O)[nH]4)cc3Cl)cc21` [Example 20, N-(3,5-dichloro-4-((1-isopropyl-1H-benzo[d]imidazol-6-yl)oxy)phenyl)-5-oxo-4,5-dihydro-1,2,4-oxadiazole-3-carboxamide], the THRβ-Selectivity is reported as 348.9 on TR beta-LBD and 11.3 at THR-β/RXR-α.

Turning to `CC(C)n1cnc2ccc(Oc3c(Cl)cc(-n4nc(C#N)c(=O)[nH]c4=O)cc3Cl)cc21` [Example 21, 2-(3,5-dichloro-4-((1-isopropyl-1H-benzo[d]imidazol-6-yl)oxy)phenyl)-3,5-dioxo-2,3,4,5-tetrahydro-1,2,4-triazine-6-carbonitrile], the THRβ-Selectivity at TR beta-LBD is recorded as 12.9; at THR-β/RXR-α, 10.9.

`O=C(Nc1cc(Cl)c(Oc2ccc3ncn(C4CC4)c3c2)c(Cl)c1)c1noc(=O)[nH]1` [Example 22, N-(3,5-dichloro-4-((1-cyclopropyl-1H-benzo[d]imidazol-6-yl)oxy)phenyl)-5-oxo-4,5-dihydro-1,2,4-oxadiazole-3-carboxamide]: the THRβ-Selectivity on TR beta-LBD is given as greater than 253.0; on THR-β/RXR-α, 5.9.

For the compound `N#Cc1nn(-c2cc(Cl)c(Oc3ccc4ncn(C5CC5)c4c3)c(Cl)c2)c(=O)[nH]c1=O` [Example 23, 2-(3,5-dichloro-4-((1-cyclopropyl-1H-benzo[d]imidazol-6-yl)oxy)phenyl)-3,5-dioxo-2,3,4,5-tetrahydro-1,2,4-triazine-6-carbonitrile], the THRβ-Selectivity on TR beta-LBD stood at 20.2; on THR-β/RXR-α, 5.7.

With `O=C(Nc1cc(Cl)c(Oc2ccc3nc(C4CC4)ccc3c2)c(Cl)c1)c1noc(=O)[nH]1` [Example 24, N-(3,5-dichloro-4-((2-cyclopropylquinolin-6-yl)oxy)phenyl)-5-oxo-4,5-dihydro-1,2,4-oxadiazole-3-carboxamide], the figures for the THRβ-Selectivity on TR beta-LBD and at THR-β/RXR-α were 8.1 and 4.8, respectively.

As to `Cc1ccnc2ccc(Oc3c(Cl)cc(NC(=O)c4noc(=O)[nH]4)cc3Cl)cc12` [Example 25, N-(3,5-dichloro-4-((4-methylquinolin-6-yl)oxy)phenyl)-5-oxo-4,5-dihydro-1,2,4-oxadiazole-3-carboxamide], the THRβ-Selectivity was 1286.7 on TR beta-LBD and 5.7 at THR-β/RXR-α.

The values are drawn from patent US12528791B2 (priority 2019, dated 2026).
